This note sets out measurements from PubChem BioAssay (NCI).

“And” between values parts separate entries of the source, which are not always exact repeats. Equal entries are not always repeated.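 Interpolation was linear, between the two tested concentrations surrounding the appropriate level; five concentrations were tested over 48 hours in 96-well plates. Abbreviation: GI50, concentration required for 50% inhibition of growth. TGI marks complete inhibition of growth.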 Where a SMILES comes first, the peptide text is derived from it. [ ]: non-standard residue; d: D form. Orn = NCCC[CH](N)C(=O)O

Assay in all cases: DTP human tumour cell line panel, 48 h
For assay [1], the system named is CAKI-1 renal.
Assay [2] has as its system COLO 205 colon.
Assay [3] concerns DU-145 prostate.
The test system of assay [4] is IGROV1 ovarian.
Assay [5] relates to MDA-MB-435.
The subject of assay [6] is MOLT-4 leukemia.
Assay [7] has as its system NCI/ADR-RES ovarian.
The test system of assay [8] is SK-MEL-28 melanoma.
For assay [9], the system named is SNB-75 CNS.
The test system of assay [10] is SR leukemia.

With `N=C(N)c1ccc(-c2ccc(-c3ccco3)o2)cc1F`, the GI50 in assay [1] was 1.78 µM; in assay [2] it was 1.8 µM; in assay [3], 3.27 µM; in assay [4], 2.13 µM; in [5] it was 1.63 µM; in assay [6], 2.27 µM. The GI50 in assay [7] is 2.66 µM; in assay [8], 1.81 µM; in assay [9], 1.66 µM; in assay [10], 1.97 µM. Also, the TGI was 4.64 µM in assay [1]; 3.62 µM in [2]; 11.5 µM in assay [3]; 6.02 µM in [4]; 3.25 µM in [5]; 5.22 µM in assay [6]. For the same compound, the concentration for total growth inhibition (TGI) in assay [7] amounted to 10.9 µM; in assay [8] it was 3.67 µM; in assay [9], 7.23 µM; in [10] it was 5.4 µM.

With `COc1cccc(-c2cc(NCc3ccc4c(c3)OCO4)nc(N)n2)c1`, the GI50 was 1.06 µM in [1]; 0.0466 µM in [2]; 0.125 µM in assay [3]; 0.143 µM in assay [4]; 0.0175 µM in [5]; 0.11 µM in assay [6]. The GI50 in assay [7] is 0.0458 µM; in assay [8], 0.0724 µM; in assay [9], 0.0368 µM; in assay [10], 0.0453 µM. In addition, the TGI was 32.4 µM in assay [1]; 0.198 µM in assay [2]; 12.1 µM in [3]; 19.1 µM in [4]; 0.0521 µM in assay [5]; 12.8 µM in assay [6]. Besides, the TGI in [7] worked out at 0.494 µM; in assay [8] it was 19.7 µM; in assay [9], 14.4 µM; in [10], 75 µM.

With `C(#Cc1ccccc1C#Cc1ccccn1)c1ccc(OCCCCCCOc2ccc(C#Cc3ccccc3C#Cc3ccccn3)cc2)cc1`, the GI50 in assay [1] was 5.05 µM; in assay [2] it was 8.35 µM; in [3], 6.36 µM; in assay [4] it was 5.63 µM; in assay [5] it was 1.69 µM; in [6] it was 0.225 µM. Moreover, the GI50 in assay [7] was 2.43 µM; in assay [8], 6.18 µM; in assay [9], 5.26 µM; in assay [10], 2.45 µM. The TGI in assay [1] was determined as 12 µM; in assay [2], 15.6 µM; in assay [3], 13 µM; in assay [4], 17.2 µM; in [5] it was 9.71 µM; in [6], 5.41 µM. Further, the total growth inhibition concentration (TGI) in assay [7] was found to be 18.3 µM; in assay [8], 12.4 µM; in assay [9] it was 13.8 µM; in assay [10], 19.4 µM.

As for `O=S(=O)(c1ccccc1)C1CN(Cc2ccccc2)CCN(Cc2ccccc2)C1`, the total growth inhibition concentration (TGI) was 98.9 µM in [1]; over 100 µM in assay [2]; over 100 µM in [3]; over 100 µM in assay [4]; 86.6 µM in assay [5]; over 100 µM in assay [6]. The total growth inhibition concentration (TGI) in assay [7] was 78.1 µM; in [8], over 100 µM; in assay [9], over 100 µM; in assay [10], over 100 µM.

Take `CCCNNC(=O)c1ccc(CNC(=O)/C=C/c2ccccc2)cc1`: the 50% growth inhibitory concentration (GI50) in [1] was 0.174 µM; in [2], 0.0909 µM; in assay [3], 0.218 µM; in [4], 0.185 µM; in [5], 0.2 µM; in assay [6] it was 0.106 µM. Further, the GI50 was 0.111 µM in [7], 0.146 µM in assay [8], 0.311 µM in assay [9] and 0.18 µM in assay [10]. In addition, the TGI in assay [1] was 0.733 µM; in assay [2], 0.292 µM; in assay [3], over 100 µM; in assay [4], 1.1 µM; in assay [6], over 100 µM; in assay [8], 0.857 µM. Moreover, the TGI in assay [9] is over 23.5 µM; in assay [10] it was over 100 µM.

On to `CC(C)CC1NC(=O)C(CCCN)NC(=O)C(C(C)C)NC(=O)C2CCCN2C(=O)C(Cc2ccccc2)NC(=O)C(CC(C)C)NC(=O)C(CCCN)NC(=O)C(C(C)C)NC(=O)C2CCCN2C(=O)C(Cc2ccccc2)NC1=O` (stereo not drawn) (cyclo(FPV[Orn]LFPV[Orn]L); configuration not given here), for which the GI50 in [1] is 0.564 µM and 1.02 µM; in assay [2], under 0.00325 µM; in assay [3] it was 0.0184 µM and 0.0529 µM; in assay [4], 0.18 µM and 0.228 µM; in assay [5] it was 0.00425 µM; in [6], 0.0236 µM. Moreover, the GI50 in assay [7] was 0.614 µM and 2.14 µM; in [8] it was 0.0395 µM; in assay [9], 0.0103 µM; in assay [10] it was 0.0148 µM and 0.036 µM. The TGI was 2.14 µM and 7.23 µM in assay [1]; 0.00419 µM in [2]; 1.45 µM and 1.97 µM in assay [3]; 4.69 µM and 3.75 µM in assay [4]; 0.371 µM and 1.21 µM in assay [5]; 0.402 µM in [6]. Also, the concentration for total growth inhibition (TGI) in assay [7] was 5.05 µM and 13.3 µM; in [8], 0.962 µM and 1.63 µM; in assay [9], 0.149 µM and 0.0637 µM; in assay [10] it was 0.258 µM and 0.96 µM.

Consider `O=C1C=CC(=O)N1CCCCCCCCCCN1C(=O)C=CC1=O`, for which the GI50 was 9.19 µM in assay [1]; 2.15 µM in [2]; 15.8 µM in assay [3]; 7.89 µM in assay [4]; 13.2 µM in assay [5]; 8.62 µM in assay [6]. Also, the GI50 is 21.2 µM in assay [7], 14.8 µM in [8], 11.5 µM in [9] and 6.88 µM in assay [10]. Further, the TGI was 25.2 µM in assay [1]; 5.62 µM in assay [2]; 29.2 µM in assay [3]; 24.7 µM in [4]; 28.1 µM in assay [5]; 48.6 µM in [6]. The TGI was 55.9 µM in [7], 30.9 µM in [8], 24.4 µM in assay [9] and 41.2 µM in [10].
